Test results published in the supplement of paper PMC13380429.

Tests used:
Details in all cases: 72 h
[1] = tested on: Caco-2; assay: drug sensitivity score (DSS) for viability; higher = more toxic; extreme values may be limits of the assay
[2] = tested on: HepG2; assay: as above
[3] = tested on: Calu-3; assay: as above
[4] = tested on: Vero E6; assay: as above
[5] = tested on: U2OS; assay: as above
[6] = tested on: Caco-2; assay: cell viability relative to DMSO; higher = less toxic
[7] = tested on: HepG2; assay: as above
[8] = tested on: Calu-3; assay: as above
[9] = tested on: Vero E6; assay: as above
[10] = tested on: U2OS; assay: as above
[11] = tested on: Caco-2; assay: relative viability EC50 (midpoint between 100% and the lowest measured viability); higher = less toxic
[12] = tested on: HepG2; assay: as above
[13] = tested on: Calu-3; assay: as above
[14] = tested on: Vero E6; assay: as above
[15] = tested on: U2OS; assay: as above

| SMILES | drug sensitivity score [1] | drug sensitivity score [2] | drug sensitivity score [3] | drug sensitivity score [4] | drug sensitivity score [5] | cell viability ([6]; 1 nM) | cell viability ([6]; 10 nM) | cell viability ([6]; 100 nM) | cell viability ([6]; 1000 nM) | cell viability ([6]; 10000 nM) | cell viability ([7]; 1 nM) | cell viability ([7]; 10 nM) | cell viability ([7]; 100 nM) | cell viability ([7]; 1000 nM) | cell viability ([7]; 10000 nM) | cell viability ([8]; 1 nM) | cell viability ([8]; 10 nM) | cell viability ([8]; 100 nM) | cell viability ([8]; 1000 nM) | cell viability ([8]; 10000 nM) | cell viability ([9]; 1 nM) | cell viability ([9]; 10 nM) | cell viability ([9]; 100 nM) | cell viability ([9]; 1000 nM) | cell viability ([9]; 10000 nM) | cell viability ([10]; 1 nM) | cell viability ([10]; 10 nM) | cell viability ([10]; 100 nM) | cell viability ([10]; 1000 nM) | cell viability ([10]; 10000 nM) | relative viability EC50 [11] | relative viability EC50 [12] | relative viability EC50 [13] | relative viability EC50 [14] | relative viability EC50 [15] |
| --- | --- | --- | --- | --- | --- | --- | --- | --- | --- | --- | --- | --- | --- | --- | --- | --- | --- | --- | --- | --- | --- | --- | --- | --- | --- | --- | --- | --- | --- | --- | --- | --- | --- | --- | --- |
| CCN(CC)c1ccc(C(=C2C=CC(=[N+](CC)CC)C=C2)c2ccccc2)cc1 [brilliant-green] | 21.9 | 22.3 | 18.7 | 17.7 | 24.1 | 92.4% | 92.5% | 69.4% | 0.4% | -0.3% | 109% | 97.7% | 58.8% | 5.2% | -0.3% | 94.6% | 101% | 72.4% | 16.2% | 0% | 96.5% | 97.8% | 94.2% | 6.8% | -0.2% | 93.6% | 95.5% | 47.8% | 0.8% | -0.2% | 148 nM | 128 nM | 235 nM | 328 nM | 93.3 nM |
| O=[N+]([O-])C(Br)(CO)CO [bronopol] | 0 | 0 | 0 | 0 | 0 | 95.2% | 95.2% | 96.5% | 98.7% | 113% | 112% | 108% | 107% | 93.3% | 108% | 110% | 98.6% | 91.6% | 103% | 105% | 105% | 84.2% | 106% | 90.6% | 99% | 95.5% | 102% | 95.7% | 101% | 102% | > 10000 nM | > 10000 nM | > 10000 nM | > 10000 nM | > 10000 nM |
